The test system of one data set is rat brain homogenate. Nature of the data set: TBARS assay, ex vivo rat brain homogenate (Fe3+/ascorbic acid lipid peroxidation). Format: biochemical. Conditions: compound 1 μM. Here is the method: The TBARS assay was carried on in accordance with a previously published protocol. Briefly, the rat brain, freshly isolated, was homogenized in 10% (w/v) phosphate buffer, pH 7.4. The stock solutions of compounds 2a–c and 3a–c (10 mM in DMSO) were prepared and then diluted at three different concentrations (1 mM, 100 µM, and 10 µM) with phosphate buffer pH 7.4. The experiment was performed in a falcon tube where the rat brain homogenate (100 µL) was added to FeCl3 (20 µM) and ascorbic acid (100 µM) with or without test compounds. […] All samples were heated at 37 °C and were stirred for 30 min. After this period, thiobarbituric acid (1% w/v in 0.05 N NaOH) and 25% v/v HCl were added and the falcon tubes were boiled for 10 min. Then, they were cooled in an ice-cold water bath. Finally, the extraction was executed using n-butanol (3 mL) and the tubes were centrifuged at 2000 g for 10 min. The organic portion was transferred into 96-well plates and the absorbance, at 532 nm, was recorded using a SPECTROstarNano (220–1000 nm) UV–Vis spectrophotometer, Ortenberg, Germany. The TBARS was reported as nmoles of malondialdehyde (MDA)/10 mg of rat brain tissue, by interpolation with the standard curve of 1,1,3,3-tetramethoxypropane. Data represent the mean ± SEM of the triplicate.

Data set [1] is described as follows: DPPH radical scavenging assay. Format: biochemical. The method, then:
The DPPH assay was carried out in a 96-microwell plate according to a previously described protocol. In brief, DPPH solution (60 µM in MeOH) was added to studied compounds or MeOH as the control. The 96-microwell plate was incubated (in the dark, at r.t. for 1 h) and the absorbance values were read at 517 nm by a SPECTROstarNano (220–1000 nm) UV–Vis spectrophotometer, Ortenberg, Germany. During the first screening, all compounds were tested ad 100 µM, then for compounds 2a–c the EC50 (effective concentration), the concentration of substrate that causes a 50% reduction in the DPPH colour, was calculated.
All experiments were made in triplicate. The percentage of the antioxidant activity (%AA) of the compounds was determined according to Equation (1):%AA = ((AbsDPPH − Abssample)/AbsDPPH) × 100(1)
AbsDPPH is the absorbance of DPPH solution, and Abssample is the absorbance of DPPH solution containing the tested compound.
Each concentration was tested in triplicate and the EC50 value was reported as the mean ± the standard error of the mean (SEM) of three independent experiments.

Another data set can be described thus: ABTS assay. The data set is classed as biochemical. Here is the method:
The ABTS assay was performed according to the methods reported in literature. Briefly, 7 mM of ABTS was mixed with 2.45 mM of K2S2O8 solution, ratio 1:1, in 10 mM phosphate buffer (pH 7.4). The mixture was incubated in a dark box at r.t. for 12 h, then the stock solution was diluted until the absorbance was 0.70 ± 0.02 at 734 nm.
In a 96-well plate, 190 µL ABTS working solution and 10 µL sample solution (compounds 2a–c, 3a–c at concentration of 100 μM) were mixed and the absorbance was measured (734 nm) using a SPECTROstarNano (220–1000 nm) UV–Vis spectrophotometer, Ortenberg, Germany. Then, for compounds 2a–c the EC50 was calculated and the values were expressed in TEAC equivalents. Each concentration was tested in triplicate and the EC50 was reported as the mean ± SEM of three independent experiments.

Where [2] appears, read: mean ± SEM of three independent experiments.

As usually defined, the EC50 is the concentration that produces a half-maximal response. One may read the melting point as the temperature of the solid-liquid transition.

With `O=C(/C=C/c1ccc(O)c(O)c1)NOCc1cccc(C(F)(F)F)c1` [Compound 2b, (E)-3-(3,4-dihydroxyphenyl)-N-((3-(trifluoromethyl)benzyl)oxy)acrylamide], the melting point fell in the range of 110 to 112 °C. The “antioxidant effect on TBARS production in rat brain” value with rat brain homogenate is recorded as “maintained its profile”. The “%AA (percentage of antioxidant activity), DPPH” value in data set [1] (compound 100 µM, DPPH 60 µM in MeOH, 1 h) was determined as 96%. Moreover, in data set [1] (setting [2]), the midpoint of the response, the EC50, lay at 6.1 ± 0.1 µM and the “TEAC (Trolox equivalent antioxidant capacity), DPPH” value is reported as 10.9 ± 0.3 µM. Also, the “radical scavenger / antioxidant activity, ABTS” value in the data set “ABTS assay” (compound 100 µM) is on record as 98.8%. Further, in the data set “ABTS assay” (setting [2]), it took 13.4 ± 0.1 µM to reach a half-maximal effect (EC50) and the “TEAC, ABTS” value is 11.7 ± 0.01 µM.

Source of the values: paper PMC10610016, “New Hybrid Compounds Incorporating Natural Products as Multifunctional Agents against Alzheimer’s Disease” (Pharmaceutics, 2023).
